From the supplement of paper PMC10307832

Columns and labels:
Assay in all cases: relative viability (nuclei count vs DMSO), 5 days (fraction); higher = more cells survive
[1] = compound: C[C@H]([C@@H](C(=O)N)NC(=O)[C@@H]1CSSC[C@@H](C(=O)N[C@H](C(=O)N[C@@H](C(=O)N[C@H](C(=O)N1)CCCCN)CC2=CNC3=CC=CC=C32)CC4=CC=C(C=C4)O)NC(=O)[C@@H](CC5=CC=CC=C5)N)O [CAP-232] + CC(=O)Nc1cccc(-n2c(=O)n(C3CC3)c(=O)c3c(Nc4ccc(I)cc4F)n(C)c(=O)c(C)c32)c1 [Trametinib] (partner 0.02 µM)
In short: (§1)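 Nuclei were stained with Hoechst during a one-step fixation (final 0.05% Triton X-100, 1% formaldehyde, 1 ug/ml Hoechst) carried out 5 days after dosing, then counted on 4× images. The cells, lung cancer lines in 1536-well plates, had been dosed by pin tool the day after seeding with one drug alone or a fixed anchor-drug dose plus five library-drug doses (not always all listed) in √10 steps. Relative viability is the nuclei count in treated wells divided by that in vehicle wells, and each value is the median of duplicate plates.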

[2] = compound: C[C@H]([C@@H](C(=O)N)NC(=O)[C@@H]1CSSC[C@@H](C(=O)N[C@H](C(=O)N[C@@H](C(=O)N[C@H](C(=O)N1)CCCCN)CC2=CNC3=CC=CC=C32)CC4=CC=C(C=C4)O)NC(=O)[C@@H](CC5=CC=CC=C5)N)O [CAP-232] + CC(=O)c1c(C)c2cnc(Nc3ccc(N4CCNCC4)cn3)nc2n(C2CCCC2)c1=O [Palbociclib] (partner 0.5 µM)
In short: as §1

[3] = compound: C[C@H]([C@@H](C(=O)N)NC(=O)[C@@H]1CSSC[C@@H](C(=O)N[C@H](C(=O)N[C@@H](C(=O)N[C@H](C(=O)N1)CCCCN)CC2=CNC3=CC=CC=C32)CC4=CC=C(C=C4)O)NC(=O)[C@@H](CC5=CC=CC=C5)N)O [CAP-232] + Cc1cc(Nc2cc(N3CCN(C)CC3)nc(Sc3ccc(NC(=O)C4CC4)cc3)n2)n[nH]1 [Tozasertib] (partner 0.1 µM)
In short: as §1

[4] = compound: C[C@H]([C@@H](C(=O)N)NC(=O)[C@@H]1CSSC[C@@H](C(=O)N[C@H](C(=O)N[C@@H](C(=O)N[C@H](C(=O)N1)CCCCN)CC2=CNC3=CC=CC=C32)CC4=CC=C(C=C4)O)NC(=O)[C@@H](CC5=CC=CC=C5)N)O [CAP-232] + Cc1nc(Nc2ncc(C(=O)Nc3c(C)cccc3Cl)s2)cc(N2CCN(CCO)CC2)n1 [Dasatinib] (partner 0.075 µM)
In short: as §1

[5] = compound: C[C@H]([C@@H](C(=O)N)NC(=O)[C@@H]1CSSC[C@@H](C(=O)N[C@H](C(=O)N[C@@H](C(=O)N[C@H](C(=O)N1)CCCCN)CC2=CNC3=CC=CC=C32)CC4=CC=C(C=C4)O)NC(=O)[C@@H](CC5=CC=CC=C5)N)O [CAP-232] + NC(=O)Nc1cc(-c2cccc(F)c2)sc1C(=O)N[C@H]1CCCNC1 [AZD7762] (partner 0.2 µM)
In short: as §1

Cell Line	relative viability ([1]; first compound 0.4 µM)	relative viability ([1]; first compound 1.265 µM)	relative viability ([1]; first compound 4 µM)	relative viability ([1]; first compound 12.65 µM)	relative viability ([2]; first compound 0.4 µM)	relative viability ([2]; first compound 1.265 µM)	relative viability ([2]; first compound 4 µM)	relative viability ([2]; first compound 12.65 µM)	relative viability ([3]; first compound 0.4 µM)	relative viability ([3]; first compound 1.265 µM)	relative viability ([3]; first compound 4 µM)	relative viability ([3]; first compound 12.65 µM)	relative viability ([4]; first compound 0.4 µM)	relative viability ([4]; first compound 1.265 µM)	relative viability ([4]; first compound 4 µM)	relative viability ([4]; first compound 12.65 µM)	relative viability ([5]; first compound 0.4 µM)	relative viability ([5]; first compound 1.265 µM)	relative viability ([5]; first compound 4 µM)	relative viability ([5]; first compound 12.65 µM)
NCI-H1666	0.699	0.859	0.924	0.734	0.715	0.636	0.655	0.67	0.631	0.574	0.673	0.345	0.904	0.757	0.893	0.678	0.918	0.882	0.859	0.908
LOU-NH91	0.834	0.811	0.783	0.445	0.525	0.482	0.522	0.39	0.574	0.68	0.618	0.511	0.593	0.548	0.618	0.437	0.857	0.758	0.799	0.287
NCI-H1651	0.902	0.803	0.836	0.784	0.561	0.525	0.511	0.522	0.665	0.681	0.732	0.625	0.357	0.395	0.465	0.33	0.487	0.429	0.553	0.481
201T	0.707	0.698	0.729	0.677	0.357	0.354	0.317	0.376	1.04	0.91	0.979	0.926	0.536	0.549	0.614	0.556	0.636	0.716	0.643	0.643
NCI-H3122	0.222	0.194	0.293	0.24	0.178	0.181	0.187	0.214	0.344	0.36	0.292	0.252	0.781	0.804	0.847	0.833	0.984	1.08	1.14	0.958
NCI-H838	0.59	0.555	0.626	0.39	0.228	0.205	0.237	0.212	0.274	0.273	0.286	0.231	0.364	0.249	0.403	0.25	1.05	0.995	0.989	0.823
NCI-H441	0.431	0.41	0.479	0.501	0.209	0.19	0.257	0.214	0.628	0.58	0.571	0.653	0.653	0.857	0.7	0.543	1.03	1.16	1.22	0.922
HOP-62	0.333	0.348	0.382	0.423	0.491	0.42	0.436	0.386	0.347	0.388	0.387	0.406	0.703	0.667	0.655	0.547	0.883	0.482	0.981	0.607
LCLC-103H	0.662	0.666	0.723	0.703	0.469	0.429	0.487	0.485	0.544	0.47	0.479	0.572	0.528	0.455	0.499	0.403	0.89	0.792	0.891	0.747
NCI-H1915	0.207	0.307	0.291	0.371	0.5	0.538	0.524	0.511	0.593	0.432	0.444	0.466	0.326	0.31	0.303	0.287	0.771	0.685	0.704	0.762
ChaGo-K-1	0.867	0.892	1.01	0.93	0.964	0.932	1.01	0.932	0.218	0.237	0.245	0.213	0.666	0.611	0.614	0.506	0.869	0.868	0.916	0.817
PC-3 [JPC-3]	0.703	0.7	0.69	0.7	0.583	0.542	0.545	0.555	1.05	0.949	0.924	0.91	1.08	1.06	1.08	0.908	1.02	0.735	0.873	0.794
NCI-H1437	0.445	0.515	0.617	0.458	0.293	0.312	0.315	0.303	0.412	0.403	0.461	0.466	0.547	0.343	0.358	0.416	1.15	1.11	1.09	1.05
NCI-H1734	0.506	0.656	0.645	0.504	0.34	0.336	0.368	0.233	0.248	0.272	0.266	0.197	0.45	0.459	0.461	0.446	0.637	0.578	0.527	0.426
LK-2	0.438	0.687	0.711	0.563	0.595	0.802	0.576	0.783	0.147	0.199	0.163	0.147	0.295	0.133	0.202	0.201	0.357	0.274	0.322	0.376
HCC-15	0.376	0.364	0.393	0.267	0.754	0.763	0.567	0.567	0.378	0.329	0.382	0.435	0.629	0.601	0.693	0.262	1.36	1.28	1.34	1.14
HCC-366	0.365	0.419	0.327	0.349	0.454	0.362	0.41	0.331	0.132	0.106	0.108	0.078	0.71	0.568	0.771	0.685	0.399	0.328	0.308	0.374
NCI-H650	0.821	1.04	0.896	1.01	0.358	0.306	0.271	0.285	0.749	0.747	0.713	0.7	0.509	0.426	0.521	0.417	1.29	1.03	1.02	0.951
NCI-H2347	0.34	0.255	0.256	0.241	0.453	0.462	0.412	0.423	0.564	0.545	0.517	0.521	0.28	0.285	0.342	0.292	0.733	0.746	0.726	0.662
LXF-289	0.657	0.687	0.657	0.713	0.611	0.625	0.58	0.62	0.206	0.176	0.213	0.149	0.224	0.194	0.238	0.21	1.19	1.16	1.15	1.27
BEN	1.15	0.987	0.997	0.914	0.516	0.46	0.456	0.448	0.413	0.547	0.387	0.635	0.39	0.261	0.264	0.424	0.789	0.714	0.7	0.553
NCI-H1355	0.437	0.434	0.456	0.342	0.42	0.413	0.432	0.343	0.638	0.586	0.557	0.655	0.847	0.736	0.618	0.5	0.794	0.82	0.872	0.706
NCI-H1793	0.342	0.396	0.356	0.493	0.401	0.313	0.303	0.324	0.375	0.355	0.486	0.356	0.382	0.365	0.393	0.367	0.437	0.618	0.518	0.524
PC-14	0.843	0.891	0.739	0.37	0.675	0.507	0.538	0.412	0.644	0.575	0.542	0.565	0.211	0.256	0.253	0.129	0.522	0.297	0.334	0.24
EMC-BAC-2	0.757	0.864	0.859	0.415	0.507	0.512	0.491	0.427	0.304	0.276	0.289	0.247	0.36	0.31	0.353	0.28	1.28	1.05	1.12	0.828
LU99A	0.283	0.634	0.553	0.444	0.392	0.375	0.407	0.505	0.253	0.263	0.296	0.287	0.769	0.493	0.675	0.492	0.422	0.359	0.269	0.335
RERF-LC-KJ	0.927	0.778	0.784	0.566	1.43	1.12	0.908	0.747	0.562	0.444	0.433	0.351	0.695	0.871	0.735	0.27	1.01	1.03	0.997	0.914
LCLC-97TM1	0.143	0.184	0.154	0.188	0.243	0.22	0.187	0.248	0.22	0.189	0.204	0.194	0.896	0.889	0.82	0.851	0.442	0.238	0.341	0.429
